Measurements published in patent US20240180881A1, “METHODS FOR DECREASING RESISTANCE TO CHEMOTHERAPY” (National Institute of Immunology, priority 2022, published 2024).

Key:
[1] = molecular target: T1, RAD54-BLM interaction in HEK293T cells (Homo sapiens, UniProt Q92698); assay: In cellulo interaction assay, immunoprecipitation with anti-BLM antibody; assay type: cell-based; settings: 100 nM compound, 72 hours
T1 construct: endogenous in cells; host or cells: HEK293T
T1 sequence (Q92698 1-747): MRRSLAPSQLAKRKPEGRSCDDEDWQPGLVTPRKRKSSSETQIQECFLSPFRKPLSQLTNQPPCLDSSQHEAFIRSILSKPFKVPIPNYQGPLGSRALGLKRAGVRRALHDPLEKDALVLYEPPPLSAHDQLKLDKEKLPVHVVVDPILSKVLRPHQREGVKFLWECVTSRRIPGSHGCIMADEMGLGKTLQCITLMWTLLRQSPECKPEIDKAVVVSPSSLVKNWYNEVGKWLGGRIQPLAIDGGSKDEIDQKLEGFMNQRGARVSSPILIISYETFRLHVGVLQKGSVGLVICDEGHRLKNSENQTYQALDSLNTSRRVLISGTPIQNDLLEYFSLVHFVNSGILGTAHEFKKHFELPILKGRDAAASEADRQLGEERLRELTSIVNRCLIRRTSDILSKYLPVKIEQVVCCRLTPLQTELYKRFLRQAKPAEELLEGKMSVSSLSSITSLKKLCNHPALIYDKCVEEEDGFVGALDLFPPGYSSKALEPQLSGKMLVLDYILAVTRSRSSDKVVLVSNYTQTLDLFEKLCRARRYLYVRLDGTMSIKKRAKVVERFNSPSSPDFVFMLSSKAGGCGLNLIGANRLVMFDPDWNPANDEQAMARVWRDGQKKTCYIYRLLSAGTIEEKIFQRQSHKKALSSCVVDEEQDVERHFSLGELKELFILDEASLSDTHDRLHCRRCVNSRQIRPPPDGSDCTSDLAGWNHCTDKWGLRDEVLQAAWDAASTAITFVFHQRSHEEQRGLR
Description: (§1) The levels of bound RAD54 were determined by immunoblotting with anti-RAD54 antibody (FIG. 5B). […] (Left) Direct westerns were carried out with antibodies against BLM, RAD54, bActin. (Right) immunoprecipitation (IP) was carried out with anti-BLM antibody. Westerns were carried out with anti-BLM, anti-RAD54 antibodies. The experiment was repeated three times and one representative experiment has been shown (FIG. 11B).

[2] = test system: homologous recombination in HCT116 IC60 CPTR cells; assay: HR assay; assay type: cell-based; settings: HR substrate transfected for 72 hours
Description: (§2) Concentrations of CPT used: 0.140 nM, 20 nM, 50 nM, 1000 nM. Concentration of 1-OHP: 0.14 μM, 2 μM, 4 μM, 6 μM, 8 μM. Concentrations of CDDP used: 0.140 μM, 2 μM, 5 μM, 10 μM. The percentage of viable cells were determined by MTT assays (FIG. 12A-12C). The data in FIG. 12A and FIG. 12C is from three independent experiments and the data in FIG. 12B is from nine independent experiments. […] The levels of MRP2, MRP3, MRP5, MXR were quantitated from three independent experiments. […] Specifically, HCT116 IC60 CPTR cells were transfected with the HR substrate for 72 hours and the levels of HR was determined (FIG. 6A). The data is from three independent experiments. […] The number of soft agar colonies in each condition were counted. The data is from three independent experiments.
For HR assay, 10 μg of the HR plasmid (Seluanov et al., 2010) was digested with I-SceI, purified and eluted into 20 μl of 10 mM TrisHCl pH 8.0. 5 μg of the linearized reporter cassette along with 100 ng of tdTomato-N1 plasmid were transfected in an exponentially growing 10 cm dish of cells using FuGENE® HD Transfection Reagent. After 3 days of transfection, the cells were harvested. The GFP positive and TdRed positive cells were analysed by FACS. SCE assays were carried out as described earlier (Chabosseau et al., 2011).

[3] = test system: MDR genes (MRP2, MRP3, MRP5, MXR) in HCT116 IC60 CPTR cells; settings: 100 nM compound alone, 72 hours
Description: as §2

[4] = molecular target: T2, RAD54 (Homo sapiens, UniProt Q92698); assay: ATP binding assay; assay type: biochemical; settings: 10 μM compound
T2 construct: GST RAD54 (1-747) (WT); made in house; host or cells: E. coli BL-21 DE3
T2 sequence (Q92698 1-747): T1 sequence (Q92698 1-747)
Description: The quantitation of the ATP binding assay was carried out using RAD54 WT, RAD54 WT+BLM_peptide, and RAD54 WT+SCM_peptide. The data is from three independent experiments. Mean±S.D.
The presence of the disruptors also led to a decrease in the ATP binding to RAD54.
A 20 μl reaction was set up with 120 nM of GST-RAD54 and 180 nM of either BLM_peptide or SCM_peptide or BLM (1-212) using 4 μl of 5×ATP binding assay buffer (100 mM Tris-Cl pH 7.5, 50 mM MgCl2, 10 mM MnCl2, 5 mM DTT) and 5 μCi of [γ^32P]dATP. […] Reactions were incubated at 30° C. for 20 minutes and were stopped with 10% TCA and samples were spotted on P81 phosphocellulose paper followed by washing of paper strips with 75 mM orthophosphoric acid. A minimum of 8 washes were given in 20 hrs of 1 hr each including a 12 hr wash. Following this, strips were dehydrated in ethanol for 10 min followed by liquid scintillation counting. Reactions without the substrate were spotted as control and the same process repeated.

[5] = molecular target: T3, RAD54-BLM interaction (Homo sapiens, UniProt Q92698); assay: In vitro interaction assay, bound GST-BLM WT and soluble His-RAD54 WT; assay type: binding; settings: 10 μM compound
T3 construct: made in house; host or cells: E. coli BL-21 DE3
T3 sequence (Q92698 1-747): T1 sequence (Q92698 1-747)
Description: as §1
pcDNA3.1 Flag RAD54 was used for coupled in vitro transcription/translation of RAD54 using T7 Quick coupled Transcription/Translation System kit S^35 methionine. Interaction between bound GST-BLM (wildtype or mutants) and radiolabelled RAD54 were carried out as described previously (Gupta et al., 2014). […] 10 μM of the 3 compounds were used in the in vitro interaction assays.

[6] = test system: HCT116 IC60 CPTR tumors; assay: siRNA-based ablation in xenograft studies; assay type: in vivo, SCID mice
Description: To determine whether the three key players (MRP2, BLM and RAD54) were indispensable for reverting chemoresistance in colon cancer, siRNA-based ablation in xenograft studies was carried out using SCID mice. Once the tumor volume reached 50 mm^3, either siControl or siRAD54 or siBLM or siMRP2 were injected at the base of the tumor using TAC6 polymer mediated in vivo delivery. The experiment was stopped after 21 days after which the levels of RAD54, BLM, MRP2 transcripts were analyzed by RT-qPCR to validate the downregulation of the cognate genes (FIG. 14A-14C). […] This is probably because of greater retention of CPT inside the tumors and thereby allowing increased chemotherapeutic potential of the drug (FIG. 7B).

| SMILES | RAD54 co-immunoprecipitated with BLM [1] | levels of HR [2] | transcript levels of MDR genes [3] | BLM dependent enhancement of ATP binding by RAD54 [4] | levels of RAD54 bound to GST-BLM WT [5] | tumor growth ([6]; siBLM, compound and CPT) | tumor volume ([6]; siControl, compound and CPT compared to only CPT) | tumor development ([6]; siMRP2, compound and CPT) |
| --- | --- | --- | --- | --- | --- | --- | --- | --- |
| CC(=O)Nc1nnc(S(N)(=O)=O)s1 [C3, Acetazolamide] | disrupted the RAD54-BLM interaction | decreased the levels of the HR | do not alter the transcript levels of MDR genes | decreased BLM dependent enhancement of the binding of ATP by RAD54 | disrupted the RAD54-BLM interaction | – | – | – |
| CN1CCN(C2=Nc3ccccc3Oc3ccc(Cl)cc32)CC1.O=C(O)CCC(=O)O [C17, Loxapine succinate] | – | decreased the levels of the HR | – | decreased BLM dependent enhancement of the binding of ATP by RAD54 | – | rescued tumor growth | decreased tumor volume | decreased tumor development |
| OCCN(CCO)c1nc(N2CCCCC2)c2nc(N(CCO)CCO)nc(N3CCCCC3)c2n1 [C7, Dipyridamole] | disrupted the RAD54-BLM interaction | decreased the levels of the HR | do not alter the transcript levels of MDR genes | decreased BLM dependent enhancement of the binding of ATP by RAD54 | disrupted the RAD54-BLM interaction | – | – | – |
